Test results from patent US20260167620A1, “MULTIFUNCTIONAL COMPOUND CAPABLE OF DEGRADING BTK KINASE, AND COMPOSITION AND USE” (HANGZHOU HEALZEN THERAPEUTICS CO., LTD., priority 2021, published 2026).

Target: T1, BTK (Homo sapiens, UniProt Q06187)
T1 construct: endogenous in cells; host or cells: Mino cells
Test: BTK degradation activity test in Mino cells (Westernblot or Elisa)
Type: cell-based
Details: 24-72 h incubation
Procedure: The Mino cell line cells are 0.5˜1 million/well in 6-well plates. The compounds are diluted to different concentrations, added to the plate, and after 24-72 h of incubation, the cells are collected. After the cells were lysed, the total protein concentration in each well was determined with a BCA kit. The amount of BTK is determined using the Westernblot or Elisa method.

T1 sequence (Q06187 whole entry): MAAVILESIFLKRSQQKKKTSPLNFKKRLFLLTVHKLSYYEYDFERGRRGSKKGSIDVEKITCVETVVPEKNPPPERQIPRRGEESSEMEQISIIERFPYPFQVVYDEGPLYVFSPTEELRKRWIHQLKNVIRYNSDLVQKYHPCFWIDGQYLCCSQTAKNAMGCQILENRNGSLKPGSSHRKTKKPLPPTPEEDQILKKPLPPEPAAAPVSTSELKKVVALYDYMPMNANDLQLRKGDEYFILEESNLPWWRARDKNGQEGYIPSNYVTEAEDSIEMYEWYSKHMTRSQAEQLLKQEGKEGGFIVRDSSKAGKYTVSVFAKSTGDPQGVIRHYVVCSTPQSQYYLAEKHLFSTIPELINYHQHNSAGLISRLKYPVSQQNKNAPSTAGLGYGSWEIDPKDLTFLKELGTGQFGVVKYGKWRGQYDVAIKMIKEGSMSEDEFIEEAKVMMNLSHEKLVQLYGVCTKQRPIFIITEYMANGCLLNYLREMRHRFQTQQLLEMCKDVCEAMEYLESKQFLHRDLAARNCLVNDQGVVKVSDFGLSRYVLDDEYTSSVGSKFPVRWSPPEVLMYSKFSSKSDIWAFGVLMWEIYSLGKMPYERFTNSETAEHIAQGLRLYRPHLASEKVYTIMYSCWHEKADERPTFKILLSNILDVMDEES

CC(C)(C)C(=O)OCN1C(=O)CCC(N2C(=O)c3ccc(N4CCC(CN5CCC(c6ccc(Nc7nc(N8CCCCC8)nnc7C(N)=O)cc6F)CC5)C4)cc3C2=O)C1=O (stereo not drawn) [Compound 068, (3-(5-(3-((4-(4-((6-carbamoyl-3-(piperidin-1-yl)-1,2,4-triazin-5-yl)amino)-2-fluorophenyl)piperidin-1-yl)methyl)pyrrolidin-1-yl)-1,3-dioxoisoindolin-2-yl)-2,6-dioxopiperidin-1-yl) methyl pivalate] was tested. Which DC50 did it give?
Its DC50 is less than 0.01 µM.

Which DC50 does the source give for CC(=O)N[C@@H]1CCCN(c2nnc(C(N)=O)c(Nc3ccc(N4CCN(CC5CCN(c6ncc(-c7ccc(=O)[nH]n7)cc6C(F)(F)F)CC5)CC4)c(F)c3)n2)C1 [Compound 094, (R)-3-(3-acetamidopiperidin-1-yl)-5-((3-fluoro-4-(4-((1-(5-(6-oxo-1,6-dihydropyridazin-3-yl)-3-(trifluoromethyl)pyridin-2-yl)piperidin-4-yl)methyl)piperazin-1-yl)phenyl)amino)-1,2,4-triazine-6-carboxamide] here?
Its DC50 is less than 0.01 µM.

With NC(=O)c1nnc(N2CCOCC2)nc1Nc1ccc(N2CCN(CC3CCN(c4ccc(NC5CCC(=O)NC5=O)nc4)CC3)CC2)c(F)c1 (stereo not drawn) [Compound 104, 5-((4-(4-((1-(6-((2,6-dioxopiperidin-3-yl)amino)pyridin-3-yl)piperidin-4-yl)methyl)piperazin-1-yl)-3-fluorophenyl)amino)-3-morpholino-1,2,4-triazine-6-carboxamide] as the compound, how does the DC50 read?
Its DC50 is less than 0.01 µM.

How did the DC50 turn out when NC(=O)c1nnc(N2CCOCC2)nc1Nc1ccc(N2CCN(CC3CCN(c4ccc(N5CCC(=O)NC5=O)cc4)CC3)CC2)c(F)c1 [Compound 099, 5-((4-(4-((1-(4-(2,4-dioxotetrahydropyrimidin-1(2H)-yl)phenyl)piperidin-4-yl)methyl)piperazin-1-yl)-3-fluorophenyl)amino)-3-morpholino-1,2,4-triazine-6-carboxamide] was run?
The DC50 was less than 0.01 µM.

Which DC50 does the source give for NC(=O)c1nnc(N2CCCCC2)nc1Nc1ccc(C2CCN(CC3CN(c4ccc5c(c4)C(=O)N(C4CCC(=O)NC4=O)C5=O)C3)CC2)cc1 (stereo not drawn) [Compound 008, 5-((4-(1-((1-(2-(2,6-dioxopiperidin-3-yl)-1,3-dioxoisoindolin-5-yl)azetidin-3-yl)methyl)piperidin-4-yl)phenyl)amino)-3-(piperidin-1-yl)-1,2,4-triazine-6-carboxamide] here?
The DC50 was less than 0.01 µM.

Which DC50 does the source give for NC(=O)c1nnc(N2CCC[C@@H](O)C2)cc1Nc1ccc(C2CCN(CC3CCN(c4ccc5c(c4)C(=O)N(C4CCC(=O)NC4=O)C5=O)C3)CC2)cc1 (stereo partly drawn) [Compound 041, 4-((4-(1-((1-(2-(2,6-dioxopiperidin-3-yl)-1,3-dioxoisoindolin-5-yl)pyrrolidin-3-yl)methyl)piperidin-4-yl)phenyl)amino)-6-((R)-3-hydroxypiperidin-1-yl) pyridazine-3-carboxamide] here?
The DC50 was less than 0.01 µM.

For CC(=O)N[C@@H]1CCCN(c2nnc(C(N)=O)c(Nc3ccc(N4CCN(CC5CCN(c6ccc(NC7CCC(=O)NC7=O)c(F)c6)CC5)CC4)c(F)c3)n2)C1 (stereo partly drawn) [Compound 097, 3-((R)-3-acetamidopiperidin-1-yl)-5-((4-(4-((1-(4-((2,6-dioxopiperidin-3-yl)amino)-3-fluorophenyl)piperidin-4-yl)methyl)piperazin-1-yl)-3-fluorophenyl)amino)-1,2,4-triazine-6-carboxamide], which DC50 is on record?
Its DC50 is less than 0.01 µM.

How did the DC50 turn out when CC(C)(C)C(=O)OCN1C(=O)CCC(N2C(=O)c3ccc(N4CCC(CN5CCN(c6ccc(Nc7nc(N8CCCCC8)nnc7C(N)=O)cc6F)CC5)C4)cc3C2=O)C1=O (stereo not drawn) [Compound 064, (3-(5-(3-((4-(4-((6-carbamoyl-3-(piperidin-1-yl)-1,2,4-triazin-5-yl)amino)-2-fluorophenyl)piperazin-1-yl)methyl)pyrrolidin-1-yl)-1,3-dioxoisoindolin-2-yl)-2,6-dioxopiperidin-1-yl) methyl pivalate] was run?
The DC50 was less than 0.01 µM.

NC(=O)c1nnc(N2CCC[C@@H](O)C2)nc1Nc1ccc(C2CCN(CC3CCN(c4ccc5c(c4)C(=O)N(C4CCC(=O)NC4=O)C5=O)C3)CC2)c(F)c1 (stereo partly drawn) [Compound 067, 5-((4-(1-((1-(2-(2,6-dioxopiperidin-3-yl)-1,3-dioxoisoindolin-5-yl)pyrrolidin-3-yl)methyl)piperidin-4-yl)-3-fluorophenyl)amino)-3-((R)-3-hydroxypiperidin-1-yl)-1,2,4-triazine-6-carboxamide] was tested. Which DC50 did it give?
Its DC50 is less than 0.01 µM.

For CC(=O)N[C@@H]1CCCN(c2nnc(C(N)=O)c(Nc3ccc(N4CCN(CC5CCN(c6ccc(N7CCC(=O)NC7=O)cc6)CC5)CC4)c(F)c3)n2)C1 [Compound 091, (R)-3-(3-acetamidopiperidin-1-yl)-5-((4-(4-((1-(4-(2,4-dioxotetrahydropyrimidin-1(2H)-yl)phenyl)piperidin-4-yl)methyl)piperazin-1-yl)-3-fluorophenyl)amino)-1,2,4-triazine-6-carboxamide], which DC50 is on record?
Its DC50 is less than 0.01 µM.

With NC(=O)c1nnc(N2CCOCC2)nc1Nc1ccc(N2CCN(CC3CCN(c4ccc(-c5ccc(=O)[nH]n5)cc4C(F)(F)F)CC3)CC2)c(F)c1 [Compound 103, 5-((3-fluoro-4-(4-((1-(4-(6-oxo-1,6-dihydropyridazin-3-yl)-2-(trifluoromethyl)phenyl)piperidin-4-yl)methyl)piperazin-1-yl)phenyl)amino)-3-morpholino-1,2,4-triazine-6-carboxamide] as the compound, how does the DC50 read?
Its DC50 is less than 0.01 µM.

How did the DC50 turn out when N#Cc1cccc(Nc2nnc(C(N)=O)c(Nc3ccc(C4CCN(CC5CCN(c6ccc7c(c6)C(=O)N(C6CCC(=O)NC6=O)C7=O)C5)CC4)cc3)n2)c1 (stereo not drawn) [Compound 020, 3-((3-cyanophenyl)amino)-5-((4-(1-((1-(2-(2,6-dioxopiperidin-3-yl)-1,3-dioxoisoindolin-5-yl)pyrrolidin-3-yl)methyl)piperidin-4-yl)phenyl)amino)-1,2,4-triazine-6-carboxamide] was run?
Its DC50 is less than 0.01 µM.

NC(=O)c1nnc(N2CCOCC2)nc1Nc1ccc(N2CCN(CC3CCN(c4ccc(C(=O)NC5CCC(=O)NC5=O)c(F)c4)CC3)CC2)c(F)c1 (stereo not drawn) [Compound 101, 5-((4-(4-((1-(4-((2,6-dioxopiperidin-3-yl)carbamoyl)-3-fluorophenyl)piperidin-4-yl)methyl)piperazin-1-yl)-3-fluorophenyl)amino)-3-morpholino-1,2,4-triazine-6-carboxamide] was tested. Which DC50 did it give?
Its DC50 is less than 0.01 µM.

Which DC50 does the source give for NC(=O)c1nnc(N2CC[C@@H](O)C2)nc1Nc1ccc(C2CCN(CC3CCN(c4ccc5c(c4)C(=O)N(C4CCC(=O)NC4=O)C5=O)C3)CC2)cc1 (stereo partly drawn) [Compound 022, 5-((4-(1-((1-(2-(2,6-dioxopiperidin-3-yl)-1,3-dioxoisoindolin-5-yl)pyrrolidin-3-yl)methyl)piperidin-4-yl)phenyl)amino)-3-((R)-3-hydroxypyrrolidin-1-yl)-1,2,4-triazine-6-carboxamide] here?
The DC50 was less than 0.01 µM.

NC(=O)c1nnc(N2CCCCC2)nc1Nc1ccc(N2CCC(CN3CCN(c4ccc(-c5ccc(=O)[nH]n5)cc4C(F)(F)F)CC3)CC2)c(F)c1 [Compound 089, 5-((3-fluoro-4-(4-((4-(4-(6-oxo-1,6-dihydropyridazin-3-yl)-2-(trifluoromethyl)phenyl)piperazin-1-yl)methyl)piperidin-1-yl)phenyl)amino)-3-(piperidin-1-yl)-1,2,4-triazine-6-carboxamide] was tested. Which DC50 did it give?
Its DC50 is less than 0.01 µM.

NC(=O)c1nnc(-c2nccs2)nc1Nc1ccc(C2CCN(CC3CCN(c4ccc5c(c4)C(=O)N(C4CCC(=O)NC4=O)C5=O)C3)CC2)cc1 (stereo not drawn) [Compound 024, 5-((4-(1-((1-(2-(2,6-dioxopiperidin-3-yl)-1,3-dioxoisoindolin-5-yl)pyrrolidin-3-yl)methyl)piperidin-4-yl)phenyl)amino)-3-(thiazol-2-yl)-1,2,4-triazine-6-carboxamide] was tested. Which DC50 did it give?
Its DC50 is less than 0.01 µM.

For NC(=O)c1cnc(N2CCC[C@@H](O)C2)nc1Nc1ccc(C2CCN(CC3CCN(c4ccc5c(c4)C(=O)N(C4CCC(=O)NC4=O)C5=O)C3)CC2)cc1 (stereo partly drawn) [Compound 035, 4-((4-(1-((1-(2-(2,6-dioxopiperidin-3-yl)-1,3-dioxoisoindolin-5-yl)pyrrolidin-3-yl)methyl)piperidin-4-yl)phenyl)amino)-2-((R)-3-hydroxypiperidin-1-yl) pyrimidine-5-carboxamide], which DC50 is on record?
The DC50 was less than 0.01 µM.

How did the DC50 turn out when NC(=O)c1nnc(N2CCCCC2)nc1Nc1ccc(N2CCN(C(=O)C3CCN(c4ccc5c(c4)C(=O)N(C4CCC(=O)NC4=O)C5=O)C3)CC2)cc1 (stereo not drawn) [Compound 056, 5-((4-(4-(1-(2-(2,6-dioxopiperidin-3-yl)-1,3-dioxoisoindolin-5-yl)pyrrolidine-3-carbonyl)piperazin-1-yl)phenyl)amino)-3-(piperidin-1-yl)-1,2,4-triazine-6-carboxamide] was run?
The DC50 was less than 0.01 µM.

For NC(=O)c1nnc(Oc2cccc(F)c2F)nc1Nc1ccc(C2CCN(CC3CCN(c4ccc5c(c4)C(=O)N(C4CCC(=O)NC4=O)C5=O)C3)CC2)cc1 (stereo not drawn) [Compound 028, 3-(2,3-difluorophenoxy)-5-((4-(1-((1-(2-(2,6-dioxopiperidin-3-yl)-1,3-dioxoisoindolin-5-yl)pyrrolidin-3-yl)methyl)piperidin-4-yl)phenyl)amino)-1,2,4-triazine-6-carboxamide], which DC50 is on record?
Its DC50 is less than 0.01 µM.

How did the DC50 turn out when NC(=O)c1nnc(N2CCCCC2)nc1Nc1ccc(C2CCN(C(=O)C3CCN(c4ccc5c(c4)C(=O)N(C4CCC(=O)NC4=O)C5=O)C3)CC2)cc1 (stereo not drawn) [Compound 055, 5-((4-(1-(1-(2-(2,6-dioxopiperidin-3-yl)-1,3-dioxoisoindolin-5-yl)pyrrolidine-3-carbonyl)piperidin-4-yl)phenyl)amino)-3-(piperidin-1-yl)-1,2,4-triazine-6-carboxamide] was run?
Its DC50 is less than 0.01 µM.

For NC(=O)c1nnc(N2CCCCC2)nc1Nc1ccc(C2CCN(C(=O)C3CCN(c4ccc5c(c4)C(=O)N(C4CCC(=O)NC4=O)C5=O)CC3)CC2)cc1 (stereo not drawn) [Compound 057, 5-((4-(1-(1-(2-(2,6-dioxopiperidin-3-yl)-1,3-dioxoisoindolin-5-yl)piperidine-4-carbonyl)piperidin-4-yl)phenyl)amino)-3-(piperidin-1-yl)-1,2,4-triazine-6-carboxamide], which DC50 is on record?
The DC50 was less than 0.01 µM.
